From patent US20180000782A1, “THERAPEUTIC AGENT FOR KERATOCONJUNCTIVE DISORDERS” (priority 2012, published 2018)

Tests used:
[1] = test system: normal rabbit primary keratocytes; assay: Suppression of three-dimensional collagen gel degradation in normal rabbit primary keratocytes (Example 1); type: cell-based; conditions: R667 0.1-1000 nM; stimulant 10 ng/ml and Plasminogen 60 μg/ml; 48 hours of culturing; FIG. 1
Experimental: Normal rabbit corneal cells were used to assess the suppression effect of a tested compound on three-dimensional collagen gel degradation in accordance with the method of Nishida et al (Investigative Ophthalmology & Visual Science 42: 1247-1253 (2001)).
Primary keratocytes collected from a normal rabbit eye ball was grown to a confluent state and detached from a culture slide with 0.05% Trypsin-EDTA. After washing in a serum free medium (product number 11095; Gibco), the number of cells were counted. The obtained primary keratocytes were mixed with the type I collagen solution Cellmatrix Type I-A (product number 637-00653; Nitta Gelatin Inc.) and Reconstitution Buffer (product number 635-00791; Nitta Gelatin Inc.) and dispensed into a 24-well plate so that the final concentration would be 1×10^5 cells/well to make a collagen gel. […]
After 48 hours of culturing, the supernatant was ultrafiltrated, 100 μl of concentrated hydrochloric acid was added and heated, and the collagen was hydrolyzed. […] The amount of hydroxyproline, which is the collagen degradation product in the solution, was measured in accordance with the method of Bergman et al (Analytical Chemistry 35(12): 1961-1965 (1963)) to assess the effect of suppressing collagen degradation of RARγ agonist A. The results are shown in FIG. 1.

[2] = test system: primary subconjunctival fibroblasts; assay: Suppression of three-dimensional collagen gel contraction, primary subconjunctival fibroblasts (Example 2); type: cell-based, rabbit; conditions: TGF-β1 1 ng/ml, RARγ agonist A 1, 10, 100 nM, after 48 hours, FIG. 2
Experimental: (§1) Primary subconjunctival fibroblasts and primary keratocytes were used to assess the suppression effect of a tested compound on three-dimensional collagen gel contraction in accordance with the method of Nishida et al. As in Example 1, primary subconjunctival fibroblasts were grown and detached from a culture slide. After washing, a cell suspension was made. The resulting suspension (1.1×10^7 cells/well MEM), type I collagen solution (5 mg/ml), 10×MEM, Reconstitution Buffer, and water were mixed on ice at 0.2:7:1:1:1.8 (volume ratio). A culture dish coated with 1% BSA was inoculated with 0.5 ml of the mixture, which was incubated for one hour at 37° C. to make a collagen gel. Then, 0.5 ml of serum free media, to which a certain amount (1 ng/ml) of TGF-β1 (R&D Systems) and RARγ agonist A at each of the concentrations 1 nM, 10 nM, and 100 nM were added, were each added onto the above-described gel. The gel, together with a gel to which an agent-free serum-free medium was added, was continuously incubated at 37° C. The diameter of gels was measured from the time when 24 hours has past.

primary keratocytes [3] = assay: Suppression of three-dimensional collagen gel contraction, primary keratocytes (Example 2); type: cell-based, rabbit; conditions: TGF-β1, FIG. 3
Experimental: as §1, with “past. The gel diameter was measured for primary keratocytes in a similar manner to the primary subconjunctival fibroblasts.” for “past.”

primary keratocytes [4] = assay: Suppression of three-dimensional collagen gel degradation in primary keratocytes by RARγ agonist A, B or C (Example 3); type: cell-based, rabbit; conditions: R667 1 nM, CD437 1 nM and 10 nM, BMS961 10 nM; stimulant IL-1β 10 ng/ml and Plasminogen 60 μg/ml; 48 hours; FIG. 4
Experimental: As in Example 1, primary keratocytes were grown and detached from a culture slide. After washing, a cell suspension was made. The resulting suspension (1.1×10^7 cells/well MEM), type I collagen solution (5 mg/ml), 10×MEM, Reconstitution Buffer, and water were mixed on ice at 0.2:7:1:1:1.8 (volume ratio). A culture dish coated with 1% BSA was inoculated with 0.5 ml of the mixture, which was incubated for one hour at 37° C. to make a collagen gel.
After 48 hours of culturing, collagen was hydrolyzed and the amount of hydroxyproline, which is the collagen degradation product, was measured by the same method as Example 1 to assess the effect of suppressing collagen degradation of each RARγ agonist.

MMP-1 = assay: Suppression of expression and activation of MMP-1, western blot of keratocyte supernatant; type: cell-based, rabbit; conditions: R667 1×10^−6 to 1×10^−2 μM, 12 hours of pre-treatment; 0.1 ng/ml, 24 hours; FIG. 5A
Experimental: (§2) It is believed that secretion or expression of protease, i.e., matrix metalloproteinases (MMP), is associated with the degradation of type I collagen. In this regard, suppression of expression and activation of MMP-1, 2, 3, and 9 by RARγ agonist A was investigated. Primary keratocytes collected from a normal rabbit eye ball were cultured for 24 hours in a serum-free MEM medium. RARγ agonist A ([…]) ([…] concentration: 1×10^-6 μM, 1×10^-5 μM, 1×10^-4 μM, 1×10^-3 μM, 1×10^-2 μM) was added to the obtained culture solution and 12 hours of pre-treatment was performed. As a positive control, 10 nM of dexamethasone (Dex), which is a synthetic steroid, was added and pre-treatment was similarly performed. Then, IL-113 (0.1 ng/ml) was added for stimulation, and the supernatant was collected after 24 hours. The following western blot analysis and gelatin zymography analysis were used on the collected culture solution. After developing the supernatant of the collected culture solution in SDS-PAGE using 10% polyacrylamide gel, the separated proteins were transferred onto a nitrocellulose filter. Then, non-specific sites on the nitrocellulose filter were blocked and incubated for 24 hours at 4° C. with anti-human MMP-1 antibodies (R&D Systems) and anti-rabbit MMP-3 antibodies (Daiichi Fine Chemical Co., Ltd). ECL® reagent (GE Healthcare) was used for detection.

MMP-3 = assay: Suppression of expression and activation of MMP-3, western blot of keratocyte supernatant; type: cell-based, rabbit; conditions: R667 1×10^−6 to 1×10^−2 μM, 12 hours of pre-treatment; IL-113 0.1 ng/ml, 24 hours; FIG. 5A
Experimental: as §2

MMP-2 = assay: Suppression of expression and activation of MMP-2, gelatin zymography of keratocyte supernatant; type: cell-based, rabbit; conditions: R667 1×10^−6 to 1×10^−2 μM, 12 hours of pre-treatment; 0.1 ng/ml, 24 hours; FIG. 5B
Experimental: (§3) It is believed that secretion or expression of protease, i.e., matrix metalloproteinases (MMP), is associated with the degradation of type I collagen. In this regard, suppression of expression and activation of MMP-1, 2, 3, and 9 by RARγ agonist A was investigated. Primary keratocytes collected from a normal rabbit eye ball were cultured for 24 hours in a serum-free MEM medium. RARγ agonist A ([…]) ([…] concentration: 1×10^-6 μM, 1×10^-5 μM, 1×10^-4 μM, 1×10^-3 μM, 1×10^-2 μM) was added to the obtained culture solution and 12 hours of pre-treatment was performed. As a positive control, 10 nM of dexamethasone (Dex), which is a synthetic steroid, was added and pre-treatment was similarly performed. Then, IL-113 (0.1 ng/ml) was added for stimulation, and the supernatant was collected after 24 hours. The following western blot analysis and gelatin zymography analysis were used on the collected culture solution. After developing the supernatant of the collected culture solution on SDS-PAGE using 10% polyacrylamide gel containing 0.1% of gelatin, it was incubated for one hour at room temperature with a TBS solution containing 2.5% Triton X-100. The gel after incubation was dyed with a solution of Coomassie Brilliant Blue (Wako Pure Chemical Industries, Ltd.) and decolored with a 5% methanol-7.5% acetic acid solution (Nacalai Tesque, Inc).

MMP-9 = assay: Suppression of expression and activation of MMP-9, gelatin zymography of keratocyte supernatant; type: cell-based, rabbit; conditions: R667 1×10^−6 to 1×10^−2 μM, 12 hours of pre-treatment; IL-113 0.1 ng/ml, 24 hours; FIG. 5B
Experimental: as §3

[5] = test system: male Japanese white rabbits; assay: Suppression of corneal opacity and ulceration, LPS injected into the corneal stroma; type: in vivo, rabbit; conditions: 0.1% R667 (24 mM), 50 μl instillation, four times daily until day 10; 1% LPS into the corneal stroma; FIG. 6B
Experimental: Systemic anesthesia was applied to male Japanese white rabbits (body weight 2.5-3.5 kg, 27 rabbits) by intramuscular administration of a solution of a mixture of ketamine and xylazine. Then, topical anesthesia was applied by a 0.4% oxybuprocaine hydrochloride instillation. Furthermore, 30 μl of 1% LPS (Sigma Aldrich) was injected into the corneal stroma of one eye, but not in the other eye.
50 μl of 0.1% PBS/0.1% polysorbate 80 solution containing RARγ agonist A (R667: 0.1%, 24 mM) was instillatively administered to the rabbits injected with LPS twice after the injection on the day of LPS injection and four times daily thereafter until day 10 by using a micropipette. As a control, a 0.1% PBS/0.1% polysorbate 80 solution free of RARγ agonist A (Vehicle) was similarly administered. FIGS. 6A and 6B show representative examples of a control and a case where RARγ agonist A was administered.

SMILES: CC1(C)CCC(C)(C)c2cc(Cn3cccn3)c(/C=C/c3ccc(C(=O)O)cc3)cc21 [RARγ agonist A, (E)-4-(2-{3-[(1H-pyrazole-1-yl)methyl]-5,5,8,8-tetramethyl-5,6,7,8-tetrahydronaphthalene-2-yl}vinyl)benzoic acid]
- effect of suppressing collagen degradation (amount of hydroxyproline) [1]: dosage-dependent effect of suppressing keratoconjunctive collagen degradation
- suppression of collagen gel contraction (diameter of collagen gel) [2]: can suppress
- suppression of collagen gel contraction (diameter of collagen gel) (primary keratocytes [3]): can suppress
- effect of suppressing collagen degradation (ratio of amount of hydroxyproline) (primary keratocytes [4]): exhibited an effect of suppressing keratoconjunctive collagen degradation
- expression and activation of MMP-1 (bands of Pro-MMP-1 and active MMP-1) (MMP-1): concentration-dependently suppresses
- expression and activation of MMP-3 (bands of Pro-MMP-3 and active MMP-3) (MMP-3): concentration-dependently suppresses
- expression and activation of MMP-2 (bands of Pro-MMP-2 and active MMP-2) (MMP-2): concentration-dependently suppresses
- expression and activation of MMP-9 (bands of Pro-MMP-9 and active MMP-9) (MMP-9): concentration-dependently suppresses
- corneal opacity and ulceration [5]: corneal opacity and ulceration were not observed
